Assay results published in article PMC7851395 (British Journal of Cancer, 2020).

Tests used:
[1] = test system: NSCLC cells (PC-9, A549 or H460); experiment: cells; assay type: cell-based, human; conditions: Supplementary Table 1, cell line (PC-9, A549 or H460) not assignable
Experimental: (§1) The cytotoxicity and viability of human NSCLC cells and normal cells were determined by MTT assay. MTT assay was performed as described previously.[22] MTT assay was used to determine the cell cytotoxicity and viability in human NSCLC cells. Cells (5 × 10^3 cells/well) were plated in 96-well plates and attached overnight. After the proper treatment, the MTT solution was added at 25 µL/well and incubated at 37 °C for 4 h. The formazan crystals were dissolved in 150 µL of DMSO, and the optical density (OD) was measured using a Microplate Reader at 490 nm. The cell viability was calculated by the following formula: viability = (average OD values of treatment wells/average OD values of vehicle control wells) × 100%. And half-maximal inhibitory concentration (IC50) values were determined by GraphPad Pro Prism 7.0.

PC-9 cells = experiment: MTT cytotoxicity assay, PC-9 cells; assay type: cell-based; conditions: Homo sapiens
Experimental: as §1

A549 cells = experiment: MTT cytotoxicity assay, A549 cells; assay type: cell-based; conditions: Homo sapiens, A549
Experimental: as §1

H460 cells = experiment: MTT cytotoxicity assay, H460 cells; assay type: cell-based; conditions: Homo sapiens, NCI-H460
Experimental: as §1

[2] = test system: P-CDK9, CDK9, P-STAT3 and S2 RNAPII; experiment: Western blot of CDK9/STAT3 pathway proteins; assay type: cell-based, human; conditions: H460 and PC-9 cells, 12 h; acetyl-bufalin 25-200 nM, SNS-032 200 nM
Experimental: Tissue proteins were extracted with tissue protein lysate buffer. Cells were grown to different densities and extracted with cell protein lysate buffer. The protein was mixed with loading buffer and boiled for 10 min at 100 °C, then loaded and separated by 10% or 12% sodium dodecyl sulfate-polyacrylamide gel (SDS-PAGE) and then transferred onto a PVDF membrane blocking with 5% skim milk. The blots were incubated overnight with specific primary antibodies at 4 °C. On the second day, after washing with TBST (a mixture of tris-buffered saline (TBS) and Tween 20) three times, the […] membranes were incubated with horseradish peroxidase-conjugated secondary antibodies for 1 h. The immunoreactive bands were visualised with enhanced chemiluminescence reagent.

H460 xenograft = assay type: in vivo, BALB/c nude mice; conditions: 2 mg/kg i.p. every other day, compared with vehicle
Experimental: All animal procedures were done accordingly with the Institutional laboratory animal research guidelines and were approved by Wenzhou Medical University Animal Policy and Welfare Committee. Female athymic BALB/c nude mice (5–6 weeks old) and immune-defective non-obese […] diabetic severe combined immunodeficiency (NOD-SCID) mice (6–8 weeks old) were purchased from the Vital River Experimental Animal Center (Beijing, China). All the mice were housed under 12 h light–dark cycles at 25 °C and free for water and diet. For the xenograft model, the H460 cells (5 × 10^6 cells were mixed with an equal volume of PBS and Matrigel in 100 μL) were implanted on the hind flank of nude mice. Once tumour volumes reached ~50 mm^3, 24 mice were divided into four experimental groups (six mice per group, no differences in mean body weights or tumour volumes between the groups) and intraperitoneal injection with 2 mg/kg SNS-032 (a recognised CDK9 inhibitor), bufalin and acetyl-bufalin every other day. Tumour volume was measured as V = (L × W × W)/2, in which L and W represent the length and width of tumour. Animals were killed by cervical dislocation once the tumour volume reached 1000 mm^3. The tumours, hearts, livers, kidneys and lungs were removed for use in the histology and western blot analysis.

CDK9 = biological target: T1, CDK9 (Homo sapiens, UniProt P50750); experiment: HuProt human proteome microarray binding; conditions: 10 μM on HuProt microarray, CDK9 spots
T1 construct: GST (N); purchased CDI Laboratories, Baltimore, MD Arrayit HuProt v2.0 19 K Human Proteome Microarrays
T1 sequence (P50750 whole entry): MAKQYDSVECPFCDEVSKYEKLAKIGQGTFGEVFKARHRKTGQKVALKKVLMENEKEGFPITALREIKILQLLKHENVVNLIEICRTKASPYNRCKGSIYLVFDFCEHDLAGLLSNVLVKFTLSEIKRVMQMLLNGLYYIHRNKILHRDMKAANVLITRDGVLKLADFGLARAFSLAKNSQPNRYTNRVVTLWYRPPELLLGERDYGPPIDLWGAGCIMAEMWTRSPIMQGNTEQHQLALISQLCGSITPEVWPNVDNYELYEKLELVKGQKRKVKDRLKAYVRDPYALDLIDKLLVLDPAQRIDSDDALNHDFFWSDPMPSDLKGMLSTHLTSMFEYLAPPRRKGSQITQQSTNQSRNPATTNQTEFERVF
Experimental: Arrayit HuProt™ v2.0 19 K Human Proteome Microarrays (CDI Laboratories, Baltimore, MD) were blocked for 1 h with 3% BSA at room temperature. Biotinylated bufalin was diluted to 10 μM in blocking buffer and cultured on the proteome microarray at room temperature for 1 h. The arrays were washed with PBST (a mixture of PBS and Tween 20) and incubated with Cy3-Streptavidin at 1:1000 dilution (Sigma-Aldrich) for 1 h at room temperature. Finally, the microarray was spun dry and scanned with a GenePix 4200 A microarray scanner (Molecular Devices, San Jose, CA). Data were analysed by GenePix Pro 6.0 software. The signal-to-noise ratio (SNR) was defined as the ratio of median foreground value minus median background value. The cut-off value of SNR (>1.1) was set.

NIH mice = experiment: Acute toxicity test; assay type: in vivo; conditions: 30 mg/kg single intraperitoneal injection, observed 14 days, n = 10
Experimental: In the acute toxicity test, 30 NIH mice (female, 8 weeks old) were randomly divided into three groups (n = 10), including vehicle group, bufalin group (30 mg/kg) and acetyl-bufalin group (30 mg/kg). The three groups received intraperitoneal injection only on the first day. All the mice were housed under 12 h light–dark cycles at 25 °C and free for water and diet. […] All the mice were sacrificed by cervical dislocation.

[3] = Pharmacokinetic study in rat plasma (LC-MS/MS); assay type: in vivo, S.D. rats; conditions: 0.25 mg/kg i.v. and 2 mg/kg i.p.
Experimental: For the pharmacokinetic study, female S.D. rats (body weight 200 ± 10 g) have fasted overnight with free access to water before the experiment. Twelve rats were randomly divided into four groups. The time schedule included eight timepoints, and three S.D. rats were sampled at each time-point. Bufalin and acetyl-bufalin were administered intravenously and intraperitoneally to the rats at the dose of 0.25 mg/kg and 2 mg/kg, respectively. The animals had free access to water during the experiment. Blood samples were collected from the retro-orbital plexus of each rat at 0.083, 0.25, 0.5, 1, 2, 4, 6, 8, 12, 24 h after administration. Plasma was separated from the blood after centrifugation at 6000×g for 10 min and frozen at −20 °C until analysis. In total, 20 µL of standard samples in duplicate, quality control samples in duplicate and rat plasma samples were mixed with 60 µL of ethyl acetate containing IS (200 ng/mL of tolbutamide, 50 ng/mL of propranolol and 500 ng/mL of Dic) in EP tubes. After the mixture was vortexed for 1 min, then centrifuged for 10 min (13,000 rpm, 4 °C), transferred 50 µL supernatant to a 96-well plate with 150 µL purred water, shacked for 10 min and finally injected 5 µL into liquid chromatographic-tandem mass spectrometry (LC-MS/MS) system for analysis.

CC(=O)O[C@H]1C[C@]2(O)[C@@H]3CC[C@@H]4C[C@@H](O)CC[C@]4(C)[C@H]3CC[C@]2(C)[C@H]1c1ccc(=O)oc1 [Bufotalin]
IC50 ([1]; Homo sapiens): 813 nM

CC(=O)O[C@H]1[C@H]2O[C@]23[C@@H]2CC[C@@H]4C[C@@H](O)CC[C@]4(C)[C@H]2CC[C@]3(C)[C@H]1c1ccc(=O)oc1 [Cinobufagin]
IC50 ([1]; Homo sapiens): 414 nM

CC(=O)O[C@H]1[C@H]2O[C@]23[C@@H]2CC[C@]4(O)C[C@@H](O)CC[C@]4(C)[C@H]2CC[C@]3(C)[C@H]1c1ccc(=O)oc1 [Cinobufotalin]
IC50 ([1]; Homo sapiens): 587 nM

C[C@]12CC[C@H](O)C[C@H]1CC[C@@H]1[C@@H]2CC[C@]2(C)[C@@H](c3ccc(=O)oc3)C[C@H]3O[C@]132 [Resibufogenin]
IC50 (PC-9 cells; PC-9): 4640 nM | IC50 (A549 cells): 1130 nM | IC50 (H460 cells): 1060 nM

CC(C)(C)c1cnc(CSc2cnc(NC(=O)C3CCNCC3)s2)o1 [SNS-032, reference compound]
P-CDK9, CDK9, P-STAT3 and S2 RNAPII expressions [2]: significantly dose-dependently decreased | tumour growth (weight and volume) (H460 xenograft): significantly inhibited tumour growth

C[C@]12CC[C@H](OC(=O)CCCC[C@@H]3SC[C@@H]4NC(=O)N[C@@H]43)C[C@H]1CC[C@@H]1[C@@H]2CC[C@]2(C)[C@H](c3ccc(=O)oc3)CC[C@@]12O [bio-bufalin]
IC50 (PC-9 cells; PC-9, 48 h): 77.1 nM | signal-to-noise ratio (SNR) (CDK9): 6.748

C[C@]12CC[C@H](O)C[C@H]1CC[C@@H]1[C@@H]2CC[C@]2(C)[C@@H](c3ccc(=O)oc3)CC[C@]12O [bufalin, reference compound]
IC50 (PC-9 cells; PC-9, 48 h): 141 nM | IC50 (A549 cells): 83.2 nM | IC50 (H460 cells): 64.7 nM | mortality (mice died) (NIH mice): 10/10 | absorption [3]: fast absorption | tumour growth (weight and volume) (H460 xenograft): significantly inhibited tumour growth

Resibufagin
IC50 [1]: 16000 nM
